Source: PubChem BioAssay AID179 (DTP/NCI, 2004)
Active and inactive are the calls of the source.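 The calls were made as follows: active = compounds giving half or more protection of infected cells from virus-caused growth loss, again on retest; inactive = the rest.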

Test system: CEM cells HIV-1 protection, formazan growth assay
Test: NCI AIDS Antiviral Assay
Details: for IC50: measured here: growth of uninfected CEM cells
Procedure, shortened: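 Steps: treat uninfected and HIV-1-infected human CEM cells at five drug levels; quantify growth by soluble formazan; retest any compound reaching 50% protection; classify actives from the retest.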

Structure (SMILES)	EC50 [µM]	IC50 [µM]	outcome
C[C@@H]1Cc2c(-c3cc(-c4cc(-c5c(O)cc(O)c6c5C[C@@H](C)N[C@@H]6C)c5ccccc5c4O)c(O)c4ccccc34)c(O)cc(O)c2[C@@H](C)N1	115	> 200	–
Cc1ccc2nc3c(Cl)cc(=O)cc-3sc2c1	> 7.59	3.89	–
CC(=O)NC1C(O)CC(O)(C(=O)O)OC1C(O)C(O)CO (configuration not stated)	–	–	inactive
C/C(=C\C(=O)c1ccc(Sc2ccccc2)cc1)c1ccc(Sc2ccccc2)cc1	> 200	102	–
COC(=O)c1ccc(CCC2=CC(=O)C(Br)=CC2=O)cc1	> 200	9.33	–
CCC1CN2CCc3c([nH]c4ccccc34)C2C[C@@H]1CC(=O)N(C)C (some centres not stated)	> 148	> 148	–
COC(=O)C12C3C4C5(C(=O)OC)C(C1C35C(=O)N(C(C)C)C(C)C)C42C(=O)N(C(C)C)C(C)C (configuration not stated)	> 55	> 55	–
Nc1cc(C(=O)O)ccc1SSc1ccc(C(=O)O)cc1N	93.3	> 200	–
O=c1oc2ccccc2cc1P(=O)(O)O	> 200	8.91	–
CCOC(=O)[C@@H]1ON2O[C@H](OC3CCCC3(c3ccccc3)c3ccccc3)C[C@H]3OC(=O)[C@@H]1C32 (some centres not stated)	> 200	32.4	–
C1=NC(N(Cc2ccccc2)Cc2ccccc2)N(Cc2ccccc2)N1 (configuration not stated)	> 52.5	32.4	–
O=C(CNc1cccc(Cl)c1)Nn1c(-c2ccccc2)nc2ccccc2c1=O	> 200	2.75	–
O=C(Nc1cc2c(oc1=O)CCCCCC2)c1ccccc1	> 200	> 200	–
C=CCC12CC(O)C(O)CC1(O)OC(c1cc(OC)c(OC)c(OC)c1)C2C (configuration not stated)	> 200	> 200	–
CC1(C)C(=O)CCC(=O)C(C)(C)C2=CC=C(O2)C(C)(C)C(=O)CCC(=O)C(C)(C)C2=CC=C1O2	–	–	inactive
CN1C(=O)N/C(=C\c2ccc(S(=O)(=O)NN)cc2)C1=O	> 200	> 100	–

Structure (SMILES)	EC50 [µM]	IC50 [µM]	outcome
NC(=O)CNC(=O)c1ccccc1SC(=O)NCCCCl	3.72	64.6	–
C[C@H]1NC(=O)C2CCCCN2C(=O)CN(C)C(=O)CNC(=O)C2CCCCN2C(=O)[C@@H](NC(=O)c2nc3ccccc3cc2O)[C@@H](C)NC(=O)C2CCCCN2C(=O)CN(C)C(=O)CNC(=O)[C@@H]2CCCCN2C(=O)C1NC(=O)c1nc2ccccc2cc1O (some centres not stated)	> 10.5	0.0427	–
COC1=CC(=O)[C@@]2(OC)C(=O)c3c(cc4cc(O)c(C(O)OC)c(C)c4c3O)C(=O)[C@@]2(O)C1OC1OC(C)C(OC)C(OC)C1OC (some centres not stated)	> 93.3	64.6	–
CC(=O)OCCOCN1C(=O)NC(=O)/C(=C/c2cccc(OCc3ccccc3)c2)C1=O	> 200	18.2	–
C[PH+](C)C.C[PH+](C)C.[C-]#[O+].[C-]#[O+].[C-]#[O+].[Fe]	> 200	49	–
O=C(C1OC1c1ccc([N+](=O)[O-])cc1)C12CC3CC(CC(C3)C1)C2 (configuration not stated)	> 200	12.3	–
CCOC(=O)/C(=C\c1ccc(Cl)cc1)C(C)=O	> 372	64.6	–
CCOC1NC(=O)c2ccccc21 (configuration not stated)	–	> 200	inactive
CCCCCCCCCCCCCCCCOCC(CCl)OP(=O)(O)OP(=O)(O)OCC1OC(n2ccc(N)nc2=O)C(O)C1O (configuration not stated)	> 200	170	–
C[C@@H](NC(=O)Nc1cccc(C(=O)Nc2cc(C(C)(C)C)ccc2C(=O)O)n1)c1ccccc1	> 200	17.4	–
O=C(CCCCC1CCSS1)N(C(=O)NC1CCCCC1)C1CCCCC1 (configuration not stated)	> 200	10.5	–
CSc1cc(-c2ccccc2)s[s+]1 (tested in a mixture with another compound)	> 200	35.5	–
NC(=O)NC(=O)C(Cc1ccc(Cl)cc1)c1ccccc1 (configuration not stated)	> 85.1	> 85.1	–
Oc1ccc(-c2nc(=S)[nH][nH]2)cc1	> 933	72.4	–
CN(C)P1(=O)OCC(C(C)(C)C)CN1c1ccccc1 (configuration not stated)	> 200	> 200	–
C#CCN(N=O)C(=O)NCCCCC(NC(C)=O)C(=O)NCc1ccccc1 (configuration not stated)	> 646	56.2	–
